Source: US20040248953A1, “3-Arylsulfanyl and 3-heteroarylsulfanyl substituted benzo[b]thiophenes as therapeutic agents” (priority 2003, published 2004)

Biological target: T1, PI3Kγ (Homo sapiens, UniProt P48736)
T1 construct: HA; made in house; host or cells: Spodoptera frugiperda (Sf9) cells, baculovirus coinfection
Test: PI3Kγ in vitro kinase assay (32P-ATP, PIP2 lipid micelles, filter plate)
Assay type: biochemical
Details: purified recombinant p101/p110γ protein with G protein β1/γ2 subunits; 20 μM ATP; 25 μM PIP2; 20 minutes at room temperature
Procedure: Spodtera frugiperda cells, grown in ESF921 media, were coinfected with baculovirus expressing a glu-tagged p101 and baculovirus expressing an HA-tagged p110γ, at a 3:1 ratio of p101 baculovirus to p110γ baculovirus. Sf9 cells were grown to 1×10^7 total cells/mL in 10 L bioreactors and harvested 48-72 hours post infection. Samples of infected cells were then tested for expression of p101/p110γ PI3 kinase by immunoprecipitation and Western Blot analysis methods (see below). To purify PI3Kγ, 4 volumes of room temperature hypotonic lysis buffer (1 mM MgCl2, 1 mM DTT, 5 mM EGTA, 1 mM Pefabloc, 0.5 μM aprotinin, 5 μM leupeptin, 2 μM pepstatin, 5 μM E64, pH 8) per gram of cell paste, was poured onto frozen cell pellets with stirring, then lysed in a nitrogen “bomb” at 400 psi (599HC […], Parr Instrument Co, Moline, Ill.). NaCl was added to 150 mM, and sodium cholate was added to 1% and mixed for another 45 minutes. The lysates were clarified by centrifugation for 25 minutes at 14,000 rpm. The lysates were then loaded over anti-glu-linked Protein-G Sepaharose beads (Covance Research Products, Richmond, Calif.) using 20 mL resin/50 g cell paste. The column was washed with 15 volumes of wash buffer (1 mM DTT, 0.2 mM EGTA, 1 mM Pefabloc, 0.5 μM aprotinin, 5 μM leupeptin, 2 μM pepstatin, 5 μM E64, 150 mM NaCl, 1% sodium cholate, pH 8). PI3Kγ was eluted with 6 column volumes of wash buffer that contain 100 μg/mL of a peptide that competes for binding of the glu tag. The column fractions with the eluted protein (determined by taking OD280 readings) were collected and dialyzed in 0.2 mM EGTA, 1 mM DTT, 1 mM Pefabloc, 5 μM leupeptin, 0.5% sodium cholate, 150 mM NaCl, and 50% glycerol, pH 8. The fractions were stored at -80° C. until further use. Spodtera frugiperda cells were coinfected with baculovirus expressing a glu-tagged G protein β1 and baculovirus expressing a […], at a 1:1 ratio of glu-tagged G protein β1 baculovirus to G protein β2 baculovirus. Sf9 cells are grown in 10 L bioreactors and harvested 48-72 hours post infection. Samples of infected cells were tested for G protein β1/β2 expression by Western Blot analysis, as described below. Cell lysates were homogenized and loaded onto a column of glu-tagged beads as in Biological Example 1 and competed off the column with a glu peptide and processed as described in Biological Example 1. The inhibitory properties of the compounds in Table 1 were assayed in an in vitro PI3K assay. In a 96-well polypropylene plate, each well was spotted with […] of 50 times the desired final concentration of compound in DMSO. Purified recombinant p101/p110γ protein (0.03 μg; 2.7 nM) and G protein β1/γ2 subunits (0.09 μg; 57.7 nM) for each reaction was combined in the assay buffer (30 mM HEPES, 100 mM NaCl, 1 mM EGTA, and 1 mM DTT). ATP and [γ-^32P-ATP] (0.09 μCi) were added to this mixture so that the final ATP concentration in the reaction was 20 μM. Lipid micelles were formed by sonicating phosphatidylinositol4,5-diphosphate (PIP2), phosphatidylethanolamine (PE), and Na-cholate in the assay buffer for 10 minutes, adding MgCl2 and incubating on ice for 20 minutes, for final concentrations of 25 μM PIP2, 300 μM PE, 0.02% Na-cholate, and 10 mM MgCl2 in the reaction. The reactions were started by adding equal volumes lipid and enzyme mixture in a total volume of 50 μL, allowed to run for 20 minutes at room temperature, and stopped with 100 μL 75 mM H3PO4. The lipid product was transferred to a glass fiber filter plate and washed with 75 mM H3PO4 several times. The presence of radioactive lipid product (PIP3) was measured by adding Wallac Optiphase mix to each well and counting in a Wallac 1450 Trilux plate reader (PerkinElmer Life Sciences Inc., Boston, Mass. 02118). The IC50 for each compound tested is reported in μM in Table 1: […]

T1 sequence (P48736 whole entry, species assumed): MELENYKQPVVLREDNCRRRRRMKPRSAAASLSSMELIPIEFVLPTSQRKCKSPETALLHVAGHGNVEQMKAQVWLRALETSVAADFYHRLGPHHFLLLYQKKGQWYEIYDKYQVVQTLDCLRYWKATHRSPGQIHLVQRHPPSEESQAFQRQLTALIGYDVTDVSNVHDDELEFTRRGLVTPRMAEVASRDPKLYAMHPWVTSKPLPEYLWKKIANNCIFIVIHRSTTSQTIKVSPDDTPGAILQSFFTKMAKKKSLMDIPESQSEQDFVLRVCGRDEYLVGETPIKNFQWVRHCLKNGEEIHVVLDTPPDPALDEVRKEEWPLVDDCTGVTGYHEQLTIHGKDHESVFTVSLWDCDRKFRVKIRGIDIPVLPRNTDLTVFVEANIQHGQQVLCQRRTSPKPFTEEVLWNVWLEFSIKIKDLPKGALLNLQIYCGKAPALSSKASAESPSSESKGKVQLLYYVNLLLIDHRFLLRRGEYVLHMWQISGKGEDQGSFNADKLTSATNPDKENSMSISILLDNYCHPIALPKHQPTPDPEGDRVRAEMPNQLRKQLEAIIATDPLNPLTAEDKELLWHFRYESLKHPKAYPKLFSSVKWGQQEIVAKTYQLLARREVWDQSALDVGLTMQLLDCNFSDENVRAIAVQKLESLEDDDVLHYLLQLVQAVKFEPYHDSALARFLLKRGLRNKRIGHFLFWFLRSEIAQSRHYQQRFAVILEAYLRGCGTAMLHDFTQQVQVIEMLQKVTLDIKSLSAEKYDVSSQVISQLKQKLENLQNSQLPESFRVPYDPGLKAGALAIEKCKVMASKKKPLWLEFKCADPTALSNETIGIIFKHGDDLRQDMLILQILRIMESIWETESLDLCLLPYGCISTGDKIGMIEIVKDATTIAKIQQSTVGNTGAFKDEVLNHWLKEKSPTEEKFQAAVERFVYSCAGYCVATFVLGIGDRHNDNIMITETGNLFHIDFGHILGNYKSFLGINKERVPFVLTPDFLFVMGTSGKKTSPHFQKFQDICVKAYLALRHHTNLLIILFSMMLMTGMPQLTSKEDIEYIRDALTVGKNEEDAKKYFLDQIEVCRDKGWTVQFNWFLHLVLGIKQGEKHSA
T1 sequence (Q8WYR1 whole entry partner, species assumed): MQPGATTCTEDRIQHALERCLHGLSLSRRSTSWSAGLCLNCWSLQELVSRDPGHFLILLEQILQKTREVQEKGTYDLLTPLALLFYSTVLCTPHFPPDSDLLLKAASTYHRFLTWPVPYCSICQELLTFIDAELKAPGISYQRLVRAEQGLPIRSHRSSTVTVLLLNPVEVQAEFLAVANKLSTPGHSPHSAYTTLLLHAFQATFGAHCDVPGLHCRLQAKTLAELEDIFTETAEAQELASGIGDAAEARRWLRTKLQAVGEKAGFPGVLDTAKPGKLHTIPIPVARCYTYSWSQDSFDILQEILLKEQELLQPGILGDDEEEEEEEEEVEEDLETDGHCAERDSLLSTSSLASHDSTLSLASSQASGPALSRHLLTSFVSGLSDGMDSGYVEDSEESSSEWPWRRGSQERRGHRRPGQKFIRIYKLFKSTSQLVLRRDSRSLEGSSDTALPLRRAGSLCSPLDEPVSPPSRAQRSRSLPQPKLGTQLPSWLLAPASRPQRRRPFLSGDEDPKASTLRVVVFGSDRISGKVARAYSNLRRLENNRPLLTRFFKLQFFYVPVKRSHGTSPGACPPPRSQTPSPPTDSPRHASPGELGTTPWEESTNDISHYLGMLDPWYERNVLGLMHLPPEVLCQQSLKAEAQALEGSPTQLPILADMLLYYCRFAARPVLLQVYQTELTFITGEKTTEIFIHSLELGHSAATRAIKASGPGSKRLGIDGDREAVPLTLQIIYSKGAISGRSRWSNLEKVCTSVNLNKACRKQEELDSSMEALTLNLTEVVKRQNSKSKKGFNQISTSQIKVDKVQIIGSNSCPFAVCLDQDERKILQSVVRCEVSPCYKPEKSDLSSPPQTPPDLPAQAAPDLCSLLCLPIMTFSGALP

| SMILES | IC50 |
| --- | --- |
| COc1ccc2sc(C(=O)Nc3nnn[nH]3)c(Sc3ccc4c(c3)OCO4)c2c1 [Example 27, 3-(benzo[1,3]dioxol-5-ylsulfanyl)-5-methoxy-benzo[b]thiophene-2-carboxylic acid(1H-tetrazol-5-yl)-amide] | 1.69 µM |
| COc1cc2sc(C(=O)Nc3nnn[nH]3)c(Sc3ccc(O)cc3)c2cc1OC [Example 28, 3-(4-hydroxy-phenylsulfanyl)-5,6-dimethoxy-benzo[b]thiophene-2-carboxylic acid(1H-tetrazol-5-yl)-amide] | 1.84 µM |
| COc1cc2sc(C(=O)Nc3nnn[nH]3)c(Sc3ccoc3C)c2cc1OC [Example 29, 5,6-dimethoxy-3-(2-methyl-furan-3-ylsulfanyl)-benzo[b]thiophene-2-carboxylic acid(1H-tetrazol-5-yl)-amide] | 2.16 µM |
| COc1cc2c(Sc3ccc(O)cc3)c(C(=O)Nc3nnn[nH]3)sc2cc1C [Example 30, 3-(4-Hydroxy-phenylsulfanyl)-5-methoxy-6-methyl-benzo[b]thiophene-2-carboxylic acid(1H-tetrazol-5-yl)-amide] | 0.625 µM |
| COC(=O)Cc1ccc(Sc2c(C(=O)Nc3nnn[nH]3)sc3cc(C)c(OC)cc23)cc1 [Example 31, {4-[5-Methoxy-6-methyl-2-(1H-tetrazol-5-ylcarbamoyl)-benzo[b]thiophen-3-ylsulfanyl]-phenyl}-acetic acid methyl ester] | 3.96 µM |
| COC(=O)CCc1ccc(Sc2c(C(=O)Nc3nnn[nH]3)sc3cc(C)c(OC)cc23)cc1 [Example 32, 3-{4-[5-Methoxy-6-methyl-2-(1H-tetrazol-5-ylcarbamoyl)-benzo[b]thiophen-3-ylsulfanyl]-phenyl}-propionic acid methyl ester] | 4.53 µM |
| COc1cccc(Sc2c(C(=O)Nc3nnn[nH]3)sc3cc(C)c(OC)cc23)c1 [Example 34, 5-Methoxy-3-(3-methoxy-phenylsulfanyl)-6-methyl-benzo[b]thiophene-2-carboxylic acid(1H-tetrazol-5-yl)-amide] | 0.207 µM |
| COc1cc2c(Sc3ccc(C(C)C)cc3)c(C(=O)Nc3nnn[nH]3)sc2cc1C [Example 35, 3-(4-Isopropyl-phenylsulfanyl)-5-methoxy-6-methyl-benzo[b]thiophene-2-carboxylic acid(1H-tetrazol-5-yl)-amide] | 0.37 µM |
| COc1cc2sc(C(=O)Nc3nnn[nH]3)c(Sc3cccc(O)c3)c2cc1OC [Example 36, 3-(3-Hydroxy-phenylsulfanyl)-5,6-dimethoxy-benzo[b]thiophenes-2-carboxylic acid(1H-tetrazol-5-yl)-amide] | 1.88 µM |
| COc1ccc(Sc2c(C(=O)Nc3nnn[nH]3)sc3cc(C)c(OC)cc23)cc1 [Example 37, 5-Methoxy-3-(4-methoxy-phenylsulfanyl)-6-methyl-benzo[b]thiophene-2-carboxylic acid(1H-tetrazol-5-yl)-amide] | 0.808 µM |
| COc1cc2sc(C(=O)Nc3nnn[nH]3)c(Sc3ccc(O)cc3)c2cc1C [Example 38, 3-(4-Hydroxy-phenylsulfanyl)-6-methoxy-5-methyl-benzo[b]thiophene-2-carboxylic acid(1H-tetrazol-5-yl)-amide] | 0.885 µM |
| COc1cc2sc(C(=O)Nc3nnn[nH]3)c(Sc3cccc(O)c3)c2cc1C [Example 39, 3-(3-Hydroxy-phenylsulfanyl)-6-methoxy-5-methyl-benzo[b]thiophene-2-carboxylic acid(1H-tetrazol-5-yl)-amide] | 0.98 µM |
| COC(=O)Cc1ccc(Sc2c(C(=O)Nc3nnn[nH]3)sc3cc(OC)c(C)cc23)cc1 [Example 40, {4-[6-Methoxy-5-methyl-2-(1H-tetrazol-5-ylcarbamoyl)-benzo[b]thiophen-3-ylsulfanyl]-phenyl}-acetic acid methyl ester] | 1.26 µM |
| COC(=O)CCc1ccc(Sc2c(C(=O)Nc3nnn[nH]3)sc3cc(OC)c(C)cc23)cc1 [Example 41, 3-{4-[6-Methoxy-5-methyl-2-(1H-tetrazol-5-ylcarbamoyl)-benzo[b]thiophen-3-ylsulfanyl]-phenyl}-propionic acid methyl ester] | 4.08 µM |
| COc1cc2sc(C(=O)Nc3nnn[nH]3)c(Sc3cccc(C(F)(F)F)c3)c2cc1C [Example 42, 6-Methoxy-5-methyl-3-(3-trifluoromethyl-phenylsulfanyl)-benzo[b]thiophene-2-carboxylic acid(1H-tetrazol-5-yl)-amide] | 2.17 µM |
| COc1cc2sc(C(=O)Nc3nnn[nH]3)c(SC(c3ccccc3)C(C)N(C)C(C)=O)c2cc1C (centres unmarked) [Example 44, 3-[2-(Acetyl-methyl-amino)-1-phenyl-propylsulfanyl]-6-methoxy-5-methyl-benzo[b]thiophene-2-carboxylic acid(1H-tetrazol-5-yl)-amide] | 2.78 µM |
| COc1cc2sc(C(=O)Nc3nnn[nH]3)c(Sc3cccc(Cl)c3)c2cc1C [Example 45, 3-(3-Chloro-phenylsulfanyl)-6-methoxy-5-methyl-benzo[b]thiophene-2-carboxylic acid(1H-tetrazol-5-yl)-amide] | 0.465 µM |
| COc1cccc(Sc2c(C(=O)Nc3nnn[nH]3)sc3cc(OC)c(C)cc23)c1 [Example 46, 6-Methoxy-3-(3-methoxy-phenylsulfanyl)-5-methyl-benzo[b]thiophene-2-carboxylic acid(1H-tetrazol-5-yl)-amide] | 0.6 µM |
| COc1cc2sc(C(=O)Nc3nnn[nH]3)c(Sc3ccc(C(C)C)cc3)c2cc1C [Example 47, 3-(4-Isopropyl-phenylsulfanyl)-6-methoxy-5-methyl-benzo[b]thiophene-2-carboxylic acid(1H-tetrazol-5-yl)-amide] | 3.13 µM |
| COC(=O)Cc1ccc(Sc2c(C(=O)Nc3nnn[nH]3)sc3cc(OC)c(OC)cc23)cc1 [Example 49, {4-[5,6-Dimethoxy-2-(1H-tetrazol-5-ylcarbamoyl)-benzo[b]thiophen-3-ylsulfanyl]-phenyl}-acetic acid methyl ester] | 1.29 µM |
| COc1cc2sc(C(=O)Nc3nnn[nH]3)c(Sc3cccc(C(F)(F)F)c3)c2cc1OC [Example 50, 5,6-Dimethoxy-3-(3-trifluoromethyl-phenylsulfanyl)-benzo[b]thiophene-2-carboxylic acid(1H-tetrazol-5-yl)-amide] | 3.38 µM |
| COc1cccc(Sc2c(C(=O)Nc3nnn[nH]3)sc3cc(OC)c(OC)cc23)c1 [Example 51, 5,6-Dimethoxy-3-(3-methoxy-phenylsulfanyl)-benzo[b]thiophene-2-carboxylic acid(1H-tetrazol-5-yl)-amide] | 0.438 µM |
| COc1cc2c(Sc3ccc(N(C)C)cc3)c(C(=O)Nc3nnn[nH]3)sc2cc1C [Example 53, 3-(4-Dimethylamino-phenylsulfanyl)-5-methoxy-6-methyl-benzo[b]thiophene-2-carboxylic acid(1H-tetrazol-5-yl)-amide] | 0.39 µM |
| COc1cc2c(SCCc3ccccc3)c(C(=O)Nc3nnn[nH]3)sc2cc1C [Example 54] | 0.05 µM |
| COc1cc2c(Sc3ccc(C(=O)O)cc3)c(C(=O)Nc3nnn[nH]3)sc2cc1C [Example 55, 4-[5-Methoxy-6-methyl-2-(1H-tetrazol-5-ylcarbamoyl)-benzo[b]thiophen-3-ylsulfanyl]-benzoic acid] | 0.265 µM |
| COc1cc2c(Sc3ccc(CC(=O)O)cc3)c(C(=O)Nc3nnn[nH]3)sc2cc1C [Example 56, {4-[5-Methoxy-6-methyl-2-(1H-tetrazol-5-ylcarbamoyl)-benzo[b]thiophen-3-ylsulfanyl]-phenyl}-acetic acid] | 0.115 µM |
